The results in this text go back to patent publication US10479780B2, “Aminopyrazole derivatives” (Chugai Seiyaku Kabushiki Kaisha, priority 2015, dated 2019).

Like-named read-outs stand apart in the source and are kept apart here.

Holding throughout (type): biochemical
Assay [1] deals with T1, human Yes1 enzyme (Homo sapiens, UniProt P07947).
T1 construct: made in house
As to the kind of experiment: Yes1 enzyme inhibitory activity (time-resolved fluorometry, biotinylated peptide phosphorylation). The settings on record: read-out: YES_IC50. In a few lines: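 Inhibition was expressed against a compound-free control to give IC50, using TR-FRET read-out (Eu-cryptate anti-pTyr antibody, streptavidin-XL665).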

Assay [2] concerns the target T2, human Src enzyme (Homo sapiens, UniProt P12931).
T2 construct: purchased Carna Biosciences, Inc. 08-173
Briefly: Src enzyme inhibitory activity (time-resolved fluorometry, biotinylated peptide phosphorylation). As to conditions: read-out: SRC_IC50. In a few lines: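 Compounds were tested for blocking tyrosine phosphorylation of a biotinylated peptide substrate by recombinant human Src. Phosphorylated product was quantified by time-resolved fluorometry using europium cryptate and XL665 conjugates, and IC50 was calculated against the compound-free control.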

For assay [3], the target named is T3, human Lck enzyme (Homo sapiens, UniProt P06239).
T3 construct: purchased Carna Biosciences, Inc. 08-170
Briefly: Lck enzyme inhibitory activity (time-resolved fluorometry, biotinylated peptide phosphorylation). The settings on record: read-out: LCK_IC50. In a few lines:
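Readout pairs a europium cryptate-labelled anti-phosphotyrosine antibody with XL665-streptavidin, measured by time-resolved fluorescence. IC50 derived from percent inhibition against untreated controls.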

[4] abbreviates: biotinylated peptide phosphorylation.

T3 sequence (P06239 whole entry): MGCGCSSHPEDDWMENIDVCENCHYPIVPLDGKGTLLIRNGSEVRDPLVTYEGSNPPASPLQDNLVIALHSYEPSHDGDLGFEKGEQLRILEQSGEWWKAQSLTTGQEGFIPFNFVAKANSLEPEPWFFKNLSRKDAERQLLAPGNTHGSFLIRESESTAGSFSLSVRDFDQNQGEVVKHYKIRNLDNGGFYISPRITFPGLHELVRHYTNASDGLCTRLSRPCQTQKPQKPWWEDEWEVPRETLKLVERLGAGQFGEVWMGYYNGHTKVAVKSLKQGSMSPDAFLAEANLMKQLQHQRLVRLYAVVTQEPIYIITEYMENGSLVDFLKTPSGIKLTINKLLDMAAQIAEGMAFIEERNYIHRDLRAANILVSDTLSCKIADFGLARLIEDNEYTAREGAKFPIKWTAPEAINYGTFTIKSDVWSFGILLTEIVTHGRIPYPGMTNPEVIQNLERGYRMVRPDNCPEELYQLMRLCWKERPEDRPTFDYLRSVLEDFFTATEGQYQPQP
T1 sequence (P07947 whole entry): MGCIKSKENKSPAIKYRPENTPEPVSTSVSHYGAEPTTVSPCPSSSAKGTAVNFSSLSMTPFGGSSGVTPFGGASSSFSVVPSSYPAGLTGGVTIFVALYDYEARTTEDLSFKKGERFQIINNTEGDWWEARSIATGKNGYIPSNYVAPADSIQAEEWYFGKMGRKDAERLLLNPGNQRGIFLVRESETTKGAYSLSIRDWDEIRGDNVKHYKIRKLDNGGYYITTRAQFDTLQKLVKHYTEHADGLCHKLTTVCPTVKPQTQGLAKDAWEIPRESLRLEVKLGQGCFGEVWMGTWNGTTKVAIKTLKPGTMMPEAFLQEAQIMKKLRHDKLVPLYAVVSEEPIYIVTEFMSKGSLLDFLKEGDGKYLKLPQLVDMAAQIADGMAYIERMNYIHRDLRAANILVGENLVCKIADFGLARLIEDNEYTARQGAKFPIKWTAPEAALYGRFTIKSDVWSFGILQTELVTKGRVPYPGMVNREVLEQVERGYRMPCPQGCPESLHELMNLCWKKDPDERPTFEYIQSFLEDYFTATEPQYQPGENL
T2 sequence (P12931 whole entry): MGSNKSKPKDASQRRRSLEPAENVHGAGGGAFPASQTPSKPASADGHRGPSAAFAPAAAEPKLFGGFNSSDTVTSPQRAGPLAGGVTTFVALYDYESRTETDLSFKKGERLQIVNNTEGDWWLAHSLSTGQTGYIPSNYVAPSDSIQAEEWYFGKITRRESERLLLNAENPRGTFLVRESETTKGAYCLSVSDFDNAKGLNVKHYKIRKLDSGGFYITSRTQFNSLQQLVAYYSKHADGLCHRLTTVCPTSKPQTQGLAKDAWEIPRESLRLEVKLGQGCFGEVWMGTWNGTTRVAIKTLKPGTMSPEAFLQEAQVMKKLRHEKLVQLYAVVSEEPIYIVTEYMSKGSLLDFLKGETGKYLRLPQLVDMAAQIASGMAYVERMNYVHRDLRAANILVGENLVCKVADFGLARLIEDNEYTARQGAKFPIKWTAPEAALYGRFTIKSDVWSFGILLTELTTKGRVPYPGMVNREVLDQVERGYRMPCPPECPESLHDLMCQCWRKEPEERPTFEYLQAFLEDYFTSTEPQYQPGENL

With `Cc1cc2cc(C(=O)c3cnn(-c4cnc(Oc5ccccc5F)cc4C)c3N)[nH]c2cc1NS(=O)(=O)N1CCOCC1` [Example 4-2-108, N-[2-[5-amino-1-[6-(2-fluorophenoxy)-4-methylpyridin-3-yl]pyrazole-4-carbonyl]-5-methyl-1H-indol-6-yl]morpholine-4-sulfonamide], the IC50 in assay [1] (setting [4]) stood at 1 nM; in assay [2] (setting [4]), 94 nM; in assay [3] (setting [4]), 31 nM.

For `Cc1cc(Oc2c(F)cccc2F)ncc1-n1ncc(C(=O)c2cc3cc(OCC(F)F)c(NS(=O)(=O)c4cccc(F)n4)cc3[nH]2)c1N` [Example 5-1-570, N-[2-[5-amino-1-[6-(2,6-difluorophenoxy)-4-methylpyridin-3-yl]pyrazole-4-carbonyl]-5-(2,2-difluoroethoxy)-1H-indol-6-yl]-6-fluoropyridine-2-sulfonamide], the figures for the IC50 in assay [1] (setting [4]), in assay [2] (setting [4]) and in assay [3] (setting [4]) were 2.1 nM, 410 nM and 9.6 nM, respectively.

Consider `Cc1cc(Oc2ccccc2F)ncc1-n1ncc(C(=O)c2cc3cc(C4CC4)c(NS(=O)(=O)CCCF)cc3[nH]2)c1N` [Example 5-1-428, N-[2-[5-amino-1-[6-(2-fluorophenoxy)-4-methylpyridin-3-yl]pyrazole-4-carbonyl]-5-cyolopropyl-1H-indol-6-yl]-3-fluoropropane-1-sulfonamide], for which the IC50 came to 3.1 nM in assay [1] (setting [4]), 170 nM in assay [2] (setting [4]) and 46 nM in assay [3] (setting [4]).

`Cc1cc(Oc2ccccc2F)ncc1-n1ncc(C(=O)c2cc3cc(OCC(F)F)c(N4CCOC4=O)cc3[nH]2)c1N` [Example 4-25-016, 3-{2-{5-amino-1-[6-(2-fluorophenoxy)-4-methylpyridin-3-yl]pyrazole-4-carbonyl}-5-(2,2-difluoroethoxy)-1H-indol-6-yl}-1,3-oxazolidin-2-one]: the IC50 came to 0.48 nM in assay [1] (setting [4]), 13 nM in assay [2] (setting [4]) and 1.5 nM in assay [3] (setting [4]).

For `Cc1cc(-n2ncc(C(=O)c3cc4cc(OCC(F)F)c(N5C(=O)NC(C)(C)C5=O)cc4[nH]3)c2N)ccc1Oc1ccccc1F` [Example 5-1-170, 3-[2-[5-amino-1-[4-(2-fluorophenoxy)-3-methylphenyl]pyrazole-4-carbonyl]-5-(2,2-difluoroethoxy)-1H-indol-6-yl]-5,5-dimethylimidazolidine-2,4-dione], the IC50 worked out at 1.3 nM in assay [1], 490 nM in assay [2] and 89 nM in assay [3].

Take `Cc1ccccc1Oc1cc(C)c(-n2ncc(C(=O)c3cc4cc(NS(C)(=O)=O)c(F)cc4[nH]3)c2N)cn1` [Example 5-1-047, N-[2-[5-amino-1-[4-methyl-6-(2-methylphenoxy)pyridin-3-yl]pyrazole-4-carbonyl]-6-fluoro-1H-indol-5-yl] methanesulfonamide]: the IC50 in assay [1] amounted to 0.87 nM; in assay [2] it was 15 nM; in assay [3], 5.1 nM.

For `CC(C)N1CCC(c2cc3cc(C(=O)c4cnn(-c5ccc(Oc6cccc(Cl)c6)cc5F)c4N)[nH]c3cc2F)CC1` [Example 5-1-003, [5-amino-1-[4-(3-chlorophenoxy)-2-fluorophenyl]pyrazol-4-yl]-[6-fluoro-5-(1-propan-2-ylpiperidin-4-yl)-1H-indol-2-yl]methanone], the IC50 came out at 2 nM in assay [1], 26 nM in assay [2] and 4.7 nM in assay [3].

As to `Cc1cc(-n2ncc(C(=O)c3cc4cc(OC5CCN(C(C)C)CC5)c(Cl)cc4[nH]3)c2N)ccc1Oc1ccccc1F` [Example 5-1-196, [5-amino-1-[4-(2-fluorophenoxy)-3-methylphenyl]pyrazol-4-yl]-[6-chloro-5-(1-propan-2-ylpiperidin-4-yl)oxy-1H-indol-2-yl] methanone], the IC50 in assay [1] came to 1.7 nM; in assay [2], 190 nM; in assay [3], 67 nM.

On to `COc1cc2cc(C(=O)c3cnn(-c4cnc(Oc5ccccc5F)cc4C)c3N)[nH]c2cc1NS(=O)(=O)CC(=O)NC(C)C` [Example 4-10-015, 2-[[2-[5-amino-1-[6-(2-fluorophenoxy)-4-methylpyridin-3-yl]pyrazole-4-carbonyl]-5-methoxy-1H-indol-6-yl]sulfamoyl]-N-propan-2-ylacetamide], for which the IC50 in assay [1] (setting [4]) worked out at 1.1 nM; in assay [2] (setting [4]), 58 nM; in assay [3] (setting [4]), 7.2 nM.

As for `Cc1cc(Oc2c(F)cccc2F)ncc1-n1ncc(C(=O)c2cc3cc(OCC(F)F)c(C4CCN(S(=O)(=O)C5CC5)CC4)cc3[nH]2)c1N` [Example 4-17-024, [5-amino-1-[6-(2,6-difluorophenoxy)-4-methylpyridin-3-yl]pyrazol-4-yl]-[6-(1-cyclopropylsulfonylpiperidin-4-yl)-5-(2,2-difluoroethoxy)-1H-indol-2-yl]methanone], the IC50 in assay [1] (setting [4]) was found to be 11 nM; in assay [2] (setting [4]), 40 nM; in assay [3] (setting [4]), 25 nM.

On to `Cc1cc(Oc2c(F)cccc2F)ncc1-n1ncc(C(=O)c2cc3cc(F)c(N4C(=O)N[C@@H](C)C4=O)cc3[nH]2)c1N` [Example 5-1-406, (5S)-3-[2-[5-amino-1-[6-(2,6-difluorophenoxy)-4-methylpyridin-3-yl]pyrazole-4-carbonyl]-5-fluoro-1H-indol-6-yl]-5-methylimidazolidine-2,4-dione], for which the IC50 in assay [1] (setting [4]) was found to be 2.2 nM; in assay [2] (setting [4]), 75 nM; in assay [3] (setting [4]), 3.1 nM.

In the case of `Cc1cc2cc(C(=O)c3cnn(-c4ccc(Oc5ccccc5F)cc4C)c3N)[nH]c2cc1N1C(=O)[C@@H]2CCCN2C1=O` [Example 5-1-458, (7aS)-2-[2-[5-amino-1-[4-(2-fluorophenoxy)-2-methylphenyl]pyrazole-4-carbonyl]-5-methyl-1H-indol-6-yl]-5,6,7,7a-tetrahydropyrrolo[1,2-c]imidazole-1,3-dione], the results for the IC50 in assay [1] (setting [4]), in assay [2] (setting [4]) and in assay [3] (setting [4]) were 0.73 nM, 16 nM and 4 nM, respectively.

As for `Cc1cc(Oc2ccccc2Cl)cc(F)c1-n1ncc(C(=O)c2cc3cc(F)c(NS(C)(=O)=O)cc3[nH]2)c1N` [Example 4-7-009, N-[2-[5-amino-1-[4-(2-chlorophenoxy)-2-fluoro-6-methylphenyl]pyrazole-4-carbonyl]-5-fluoro-1H-indol-6-yl]methanesulfonamide], the IC50 in assay [1] (setting [4]) came out at 3.7 nM; in assay [2] (setting [4]), 150 nM; in assay [3] (setting [4]), 34 nM.

For the compound `Cc1cc(Oc2cccc(F)c2F)ncc1-n1ncc(C(=O)c2cc3cc(Cl)c(NS(C)(=O)=O)cc3[nH]2)c1N` [Example 4-2-087, N-[2-[5-amino-1-[6-(2,3-difluorophenoxy)-4-methylpyridin-3-yl]pyrazole-4-carbonyl]-5-chloro-1H-indol-6-yl]methanesulfonamide], the IC50 in assay [1] (setting [4]) was found to be 2.7 nM; in assay [2] (setting [4]), 220 nM; in assay [3] (setting [4]) it was 55 nM.

As to `Cc1cc(Oc2ccccc2F)ccc1-n1ncc(C(=O)c2cc3cc(OC(F)F)c(N4C(=O)C(C)(C)NC4=S)cc3[nH]2)c1N` [Example 4-23-039, 3-[2-[5-amino-1-[4-(2-fluorophenoxy)-2-methylphenyl]pyrazole-4-carbonyl]-5-(difluoromethoxy)-1H-indol-6-yl]-5,5-dimethyl-2-sulfanylideneimidazolidin-4-one], the IC50 in assay [1] (setting [4]) turned out to be 0.81 nM; in assay [2] (setting [4]), 60 nM; in assay [3] (setting [4]), 16 nM.

As for `Cc1cc2cc(C(=O)c3cnn(-c4c(C)cc(Oc5ccccc5F)cc4F)c3N)[nH]c2cc1N1CCCS1(=O)=O` [Example 4-2-114, [5-amino-1-[2-fluoro-4-(2-fluorophenoxy)-6-methylphenyl]pyrazol-4-yl]-[6-(1,1-dioxo-1,2-thiazolidin-2-yl)-5-methyl-1H-indol-2-yl]methanone], the IC50 worked out at 5 nM in assay [1] (setting [4]), 72 nM in assay [2] (setting [4]) and 16 nM in assay [3] (setting [4]).

As to `Cc1cc(Oc2c(F)cccc2F)ncc1-n1ncc(C(=O)c2cc3cc(OC(F)F)c(NC4CN(S(C)(=O)=O)C4)cc3[nH]2)c1N` [Example 5-1-079, [5-amino-1-[6-(2,6-difluorophenoxy)-4-methylpyridin-3-yl]pyrazol-4-yl]-[5-(difluoromethoxy)-6-[(1-methylsulfonylazetidin-3-yl)amino]-1H-indol-2-yl]methanone], the IC50 turned out to be 1 nM in assay [1], 20 nM in assay [2] and 3.8 nM in assay [3].

For the compound `Cc1cc2cc(C(=O)c3cnn(-c4ccc(Oc5ccccc5F)cc4C)c3N)[nH]c2cc1N1C(=O)NC2(CCN(Cc3ccccc3)C2)C1=O` (stereo not drawn) [Example 5-1-394, 3-[2-[5-amino-1-[4-(2-fluorophenoxy)-2-methylphenyl]pyrazole-4-carbonyl]-5-methyl-1H-indol-6-yl]-7-benzyl-1,3,7-tnazaspiro[4.4] nonane-2,4-dione], the IC50 in assay [1] is 2.9 nM; in assay [2] it was 93 nM; in assay [3], 21 nM.

On to `Cc1cc(Oc2cccc(F)c2F)ccc1-n1ncc(C(=O)c2cc3cc(C4CCN(C(C)C)CC4)c(F)cc3[nH]2)c1N` [Example 4-2-002, [5-amino-1-[4-(2,3-difluorophenoxy)-2-methylphenyl]pyrazol-4-yl]-[6-fluoro-5-(1-propan-2-ylpiperidin-4-yl)-1H-indol-2-yl]methanone], for which the figures for the IC50 in assay [1] (setting [4]), in assay [2] (setting [4]) and in assay [3] (setting [4]) were 0.89 nM, 3.5 nM and 3.7 nM, respectively.

As for `Cc1cc(Oc2ccccc2F)ccc1-n1ncc(C(=O)c2cc3cc(OC(F)F)c(N4CCCC4=O)cc3[nH]2)c1N` [Example 4-21-006, 1-[2-[5-amino-1-[4-(2-fluorophenoxy)-2-methylphenyl]pyrazole-4-carbonyl]-5-(difluoromethoxy)-1H-indol-6-yl]pyrrolidin-2-one], the IC50 in assay [1] (setting [4]) was determined as 1.6 nM; in assay [2] (setting [4]), 17 nM; in assay [3] (setting [4]) it was 5.5 nM.
